What was measured:
[1] = test system: HeLa cells; experiment: In vitro cytotoxicity, CellTiter Blue cell viability; type: cell-based; settings: 3 days
Protocol: HeLa cells were obtained from ATCC and incubated at 37° C. at 5% CO2 using DMEM supplemented with 10% FBS, and 1× of sodium pyruvate, non-essential amino acids, L-glutamine and antibiotics.
Cytotoxicity of compounds was evaluated using the CellTiter Blue assay (Promega). HeLa cells were plated in 96-well plates, at a density of 3000 cells/well 1 day before treatment. Treatments were prepared as 1000× serial stock dilutions in DMSO, then diluted into media for 1×, 0.1% DMSO treatment solutions. Plating media was removed, then treatments were added to the wells. After 3 days, the media was removed and replaced with 100 uL complete DMEM without phenol red. Then 20 uL of CellTiter Blue reagent was added, and the plates incubated for two hours at 37° C. Fluorescence was measured at 590 nm with excitation at 560 nm. To determine viability, average background fluorescence was subtracted from average fluorescence readings of the experimental wells (three wells per treatment concentration). Viability was calculated as the average background-subtracted signal in a well compared to that of a negative control well (treatment with 0.1% DMSO/media).
Viabilities were fit in GraphPad Prism using a non-linear, dose-dependent inhibition curve. The IC50 numbers given in the table reflect the concentration at which the cell death is 50% of the maximum response.

[2] = target: HSA (Homo sapiens, UniProt P02768); experiment: in vitro; type: in vitro ADME; settings: HSA (human serum albumin), read-out: % bound to protein (converted); for fraction unbound at 1.5 μM: concentration 1.5 μM; for fraction unbound at 3 μM: concentration 3.0 μM
Protocol: Using a dialysis-based protein binding assay according to the method described in Cohen, Plasma Protein-Binding Methods in Drug Discovery in OPTIMIZATION IN DRUG DISCOVERY: IN VITRO METHODS, Yan & Caldwell, eds., pp. 111-122 (Humana Press, Totowa, N.J., 2004), which is hereby incorporated by reference as though set forth herein in its entirety. The percentage of PTX-FA18 and the percentage of octadecanedioic acid (C18 Diacid) bound to the protein at different concentrations was measured.

[3] = Homo sapiens, 72 h, average of at least 3 replicates

HSA, sequence (P02768 25-609): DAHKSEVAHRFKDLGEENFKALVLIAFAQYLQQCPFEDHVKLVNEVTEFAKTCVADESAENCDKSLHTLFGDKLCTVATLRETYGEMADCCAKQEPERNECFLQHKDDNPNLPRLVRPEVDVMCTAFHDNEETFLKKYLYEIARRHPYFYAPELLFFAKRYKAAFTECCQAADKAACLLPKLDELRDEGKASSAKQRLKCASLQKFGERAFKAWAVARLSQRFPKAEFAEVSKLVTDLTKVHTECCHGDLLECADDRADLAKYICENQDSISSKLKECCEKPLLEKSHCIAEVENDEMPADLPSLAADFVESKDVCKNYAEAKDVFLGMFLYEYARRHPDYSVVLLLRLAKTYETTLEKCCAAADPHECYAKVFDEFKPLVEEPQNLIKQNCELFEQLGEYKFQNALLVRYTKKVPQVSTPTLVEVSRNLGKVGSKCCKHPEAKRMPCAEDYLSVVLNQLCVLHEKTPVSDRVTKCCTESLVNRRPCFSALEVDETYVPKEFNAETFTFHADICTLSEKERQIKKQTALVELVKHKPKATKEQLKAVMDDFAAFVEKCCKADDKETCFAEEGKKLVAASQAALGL

Work on `CC(=O)O[C@H]1C(=O)[C@@]2(C)[C@H]([C@H](OC(=O)c3ccccc3)[C@]3(O)C[C@H](OC(=O)[C@H](OC(=O)CCCCCCCCCCCCCCCCCCC(=O)O)[C@@H](NC(=O)c4ccccc4)c4ccccc4)C(C)=C1C3(C)C)[C@]1(OC(C)=O)CO[C@@H]1C[C@@H]2O` [PTX-FA20, Paclitaxel-C20 Diacid Conjugate] yielded an IC50 [1, 3] of 27.8 nM.

For `CC[C@@]1(OC(=O)CCCCCCCCCCCCCCCCC(=O)O)C(=O)OCc2c1cc1n(c2=O)Cc2cc3ccccc3nc2-1` [CPT-FA18, Camptothecin-C18 Diacid Conjugate], the IC50 [1, 3] was 11000 nM.

Compound `CC(=O)O[C@H]1C(=O)[C@@]2(C)[C@H]([C@H](OC(=O)c3ccccc3)[C@]3(O)C[C@H](OC(=O)[C@H](OC(=O)CCCCCCCCCCCCCCCCC(=O)O)[C@@H](NC(=O)c4ccccc4)c4ccccc4)C(C)=C1C3(C)C)[C@]1(OC(C)=O)CO[C@@H]1C[C@@H]2O` [PTX-FA18, Paclitaxel-C18 Diacid Conjugate] has a fraction unbound at 1.5 μM [2] of 0.005, a fraction unbound at 3 μM [2] of 0.003 and an IC50 [1, 3] of 64.4 nM.

Work on `CC(=O)O[C@H]1C(=O)[C@@]2(C)[C@H]([C@H](OC(=O)c3ccccc3)[C@]3(O)C[C@H](OC(=O)[C@H](OC(=O)CCCCCCCCCCCCCCC(=O)O)[C@@H](NC(=O)c4ccccc4)c4ccccc4)C(C)=C1C3(C)C)[C@]1(OC(C)=O)CO[C@@H]1C[C@@H]2O` [PTX-FA16, Paclitaxel-C16 Diacid Conjugate] yielded an IC50 [1, 3] of 137 nM.

For “Methotrexate-C18 Diacid Conjugate [MTX-FA18]”, the IC50 ([1]; average of at least 3 replicates) was 3010 nM.

Work on `O=C(O)CCCCCCCCCCCCCCCCC(=O)O` [C18 Diacid, octadecanedioic acid] yielded a fraction unbound at 1.5 μM [2] of 0.009, a fraction unbound at 3 μM [2] of 0.002 and a fraction unbound at 20 μM ([2]; concentration 20.0 μM) of 0.026.

`CC(=O)O[C@H]1C(=O)[C@@]2(C)[C@H]([C@H](OC(=O)c3ccccc3)[C@]3(O)C[C@H](OC(=O)[C@H](OC(=O)CCCCCCC/C=C/CCCCCCCC(=O)O)[C@@H](NC(=O)c4ccccc4)c4ccccc4)C(C)=C1C3(C)C)[C@]1(OC(C)=O)CO[C@@H]1C[C@@H]2O` [PTX-FAu18, Paclitaxel-uC18 Diacid Conjugate] gave an IC50 [1, 3] of 40.1 nM.

Work on `COC(=O)CCCCCCCCCCCCCCCCC(=O)NCCCCCC(=O)O[C@@H](C(=O)O[C@H]1C[C@@]2(O)[C@@H](OC(=O)c3ccccc3)[C@@H]3[C@]4(OC(C)=O)CO[C@@H]4C[C@H](O)[C@@]3(C)C(=O)[C@H](OC(C)=O)C(=C1C)C2(C)C)[C@@H](NC(=O)c1ccccc1)c1ccccc1` [PTX-FAE18-Aa, Paclitaxel-C18 Diacid Conjugate+Amino Acid Spacer] yielded an IC50 ([1]; Homo sapiens, 72 h, one experiment (*)) of 2330 nM.

Source: US10286079B2, “Modified cytotoxins and their therapeutic use” (The Regents of the University of California, priority 2015, dated 2019)
